Source: patent publication US20100068200A1, “Methods and Compositions for Inhibiting Atherosclerosis and Vascular Inflammation” (THE UNIVERSITY OF CONNECTICUT, priority 2008, published 2010)
Where a SMILES comes first, the peptide text is derived from it. The star is where a group is joined. Cbz = O=C(OCc1ccccc1)*

Experiments:
[1] = system: S1p2r−/− macrophage; assay: reversal of caspase-11 null phenotype of S1p2r−/− macrophage; type: cell-based, mouse; settings: MG132 1-20 μM, chloroquine 10-100 μM, data not shown
[2] = system: caspase-11; assay: caspase-11 protein expression in elicited peritoneal macrophages (western blot); type: cell-based; settings: mouse elicited peritoneal macrophages; oxLDL 50 μg/ml or TNFα 50 ng/ml, 8 hrs
Protocol: Isolation of Thioglycolate-Elicited Peritoneal Cells. Mice were injected i.p. with 2 ml of 3% thioglycolate. Four days later, the peritoneal fluid was collected, and cells monolayer was prepared by addition of 1 ml/well (2×10^6 macrophages) into 35 mm culture dishes. Macrophage adhesion was allowed to proceed for 4 h at 37° C. in a 5% CO2 atmosphere.
Immunoprecipitation experiments. Cell or spleen extracts were prepared with RIPA buffer (25 mM Tris-HCl pH 7.6, 150 mM NaCl, 1% NP-40, 1% sodium deoxycholate, 0.1% SDS). Caspase-1 was immunoprecipitated with polyclonal rabbit anti-caspase-1 antibody (Santa Cruz) crosslinked to protein A beads and Caspase-11 was immunoprecipitated with monoclonal rat anti-caspase-11 antibody, crosslinked to protein G beads. For western blot analysis, BMDM were treated with LPS (1 μg/ml, E. coli serotype 026:B6; Sigma). Aortas or cells were solubilized in RIPA buffer or 2×SDS-sample buffer (20 mM DTT, 6% SDS, 0.25 M Tris pH 6.8, 10% Glycerol, bromophenyl blue, protease inhibitors, 1 mM sodium orthovanadate and 1 mM NaF), sonicated, boiled and separated by SDS-PAGE gel electrophoresis. […] Cells were treated as indicated with 1 μg/ml LPS (Sigma) and 50 ng/ml TNFα (Sigma) Immunoreactive bands density was quantified with Image Pro Plus Analysis Software (Media Cybernetics).

Compound | reversal of caspase-11 null phenotype [1] | caspase-11 protein expression after stimulus [2]
CC(C)C[C@@H](C=O)NC(=O)[C@H](CC(C)C)NC(=O)[C@H](CC(C)C)NC(=O)OCc1ccccc1 [MG132] (Cbz-Leu-Leu-Leu-aldehyde) | could not reverse | –
TNFα | – | upregulates
